This is an account of results in paper PMC5164911, “Comparative Analysis of the Interaction between Different Flavonoids and PDIA3” (Oxidative Medicine and Cellular Longevity, 2016).

In assay [1] the target is T1, PDIA3 (Homo sapiens, UniProt P30101).
T1 construct: made in house; host or cells: E. coli BL21 (vector pET21)
T1 sequence (P30101 25-505): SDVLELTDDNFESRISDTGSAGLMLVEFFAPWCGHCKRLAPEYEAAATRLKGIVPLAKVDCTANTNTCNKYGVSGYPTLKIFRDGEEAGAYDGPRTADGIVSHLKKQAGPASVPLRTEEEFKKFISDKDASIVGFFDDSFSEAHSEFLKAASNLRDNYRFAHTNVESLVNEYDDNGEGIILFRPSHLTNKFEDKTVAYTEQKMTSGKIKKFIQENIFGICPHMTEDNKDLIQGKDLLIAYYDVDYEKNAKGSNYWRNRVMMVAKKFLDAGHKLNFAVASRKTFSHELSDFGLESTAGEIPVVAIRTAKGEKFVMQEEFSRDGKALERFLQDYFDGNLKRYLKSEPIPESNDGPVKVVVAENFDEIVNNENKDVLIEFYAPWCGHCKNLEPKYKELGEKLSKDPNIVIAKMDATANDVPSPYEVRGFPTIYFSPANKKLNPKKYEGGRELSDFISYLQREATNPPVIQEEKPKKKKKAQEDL
Kind of assay: Fluorescence quenching titration of PDIA3 intrinsic fluorescence. The assay is classed as binding. The settings on record: for Stern-Volmer constant (K SV): 0.5∗10^−6 M PDIA3 in reduced conditions, pH 7.4, 25°C, flavonoid 0 to 10∗10^−6 M, mean and standard deviation; for bimolecular quenching rate constant (K q): K SV = K q τ0 with τ0 of the order of 10^−8 s; for bimolecular quenching rate constant (K q) / Kd / binding constant (K b): reduced PDIA3, pH 7.4, 25°C; for Kd: K d = 1/K b, read-out: dissociation constant (K d); for binding constant (K b): equation of Bi et al., reiterative calculation of Sun et al. Here is the method: Quantitative analysis of the interaction between individual flavonoids and PDIA3 was performed by fluorimetric titration. […] Briefly, solution of PDIA3 (0.5 μM) or a and a′ domains (1 μM) in phosphate buffered saline (PBS) containing DTT 0.1 mM and EDTA 0.2 mM were titrated in quartz cuvette by stepwise additions, at 5 min time intervals, of individual flavonoid solution (1 mM in PBS/ethanol 50 : 50 v/v freshly prepared from a 20 mM stock solution in DMSO). […] To minimize the inner-filter effect we limited the highest concentration reached in the titration test up to 10 μM. All experiments were carried out at 25°C. Each spectrum was the mean of three repeated scans. Fluorescence spectra of appropriate blanks (flavonoids without proteins) were recorded under the same experimental conditions and subtracted from the corresponding flavonoid-protein system to correct the fluorescence background.
Quenching analysis was performed on PDIA3 (0.5 μM), in the reduced form, by adding stepwise increasing concentration of each molecule and recording the protein fluorescence spectra. For some flavonoids the analysis was extended to isolate a′ domain (1 μM), always in the reduced form. […] For each ligand molecule the Stern-Volmer quenching constant was obtained by linear regression of plots of F 0/F versus [L].
The Stern-Volmer quenching constant may be expressed as K SV = K q τ 0, where K q is the quencher rate coefficient and τ 0 is the average lifetime of the emissive excited state of the protein in the absence of the quencher.
The number of binding sites (n) and the binding constant (K b) were obtained by plotting log((F 0 − F)/F) versus log(1/([L t] − n(F 0 − F)[P t]/F 0)) using the reiterative calculation process described by Sun et al., assuming a similar affinity for each binding site.

For assay [2], the target named is T1, PDIA3. Kind of assay: Differential scanning fluorimetry (thermal stability, SYPRO Orange). The assay is classed as binding. The settings on record: for Effect on PDIA3 stability (T m): flavonoid up to 50 μM, mainly at the highest concentration; for Increase in melting temperature (T m) of PDIA3: 50 μM flavonoid, reduced PDIA3 1 μM. On the procedure:
Protein stability was tested by the fluorescence-based thermal stability assay or differential scanning fluorimetry (DSF) developed by Pantoliano and coworkers. DSF records the fluorescence emission signal from the binding of a dye (SYPRO orange) to the exposed hydrophobic patches upon protein unfolding. Fluorescence measurements were performed using a CFX96 Connect RT-PCR instrument (BioRad). 18 μl aliquots of protein solution (1 μM), freshly diluted in Tris Buffered saline (50 mM TrisHCl, pH 8.0, 150 mM NaCl) containing 0.1 mM DTT, 0.2 mM EDTA, and 1 : 1000 dilution of SYPRO Orange (50 mM stock solution in DMSO), were distributed in a 96-well plate. Sample wells were addition of increasing concentration (up to 50 μM) of individual flavonoid by adding 2 μl of 10-fold concentrated stock solutions freshly prepared. As control, the protein solution was added with 2 μl of the dilution buffer. A melting point analysis was recorded increasing the temperature from 20 to 95°C with an increment of 0.5°C and reading, at each temperature, the fluorescence in fluorescence resonance energy transfer mode (FRET). Each measure was the average of three sample wells reading and each DSF experiment was repeated at least three times. To calculate T m values, DSF data from the melting curve were exported and fitted to Boltzman equation using GraphPad software. Effect of flavonoids was evaluated comparing the T m values in presence and absence of each molecule.
Background: Differential scanning fluorimetry follows unfolding on heating by fluorescence.

Assay [3] concerns the target T1, PDIA3. Kind of assay: Disulfide reductase activity with DiE-GSSG fluorogenic probe. The assay is classed as biochemical. The following applies: 20 μM flavonoid (Figure 7), DiE-GSSG substrate. On the procedure: Disulfide reductase activity of ERp57 was monitored by sensitive fluorescent assay using dieosin glutathione disulfide (DiE-GSSG) as fluorogenic probe. DiE-GSSG was synthesized by the reaction of eosin isothiocyanate with oxidized glutathione (GSSG) according to the method of Raturi and Mutus with some modifications. DiE-GSSG concentration was determined spectrophotometrically (ℇ 525 = 88,000 M^-1 cm^−1). Disulfide reductase activity was assayed in a reaction buffer containing 2 mM EDTA, 150 nM DiE-GSSG, and 5 μM DTT in PBS. A 20 μl aliquot of a stock solution of PDIA3 (1 μM) was added to the reaction mixture and DiE-GSSG reduction was monitored at 545 nm with excitation at 520 nm, at 25°C with continuous stirring. Reductase activity was calculated as the initial velocity in fluorescence increase. To test the effect of flavonoids on PDIA3 activity, the protein stock solution was previously incubated for 15 minutes at room temperature with different concentrations of each flavonoid and then a 20 μl aliquot subjected to assay in a reaction buffer containing the same concentration of the flavonoid.
Fluorescence quenching constant (K SV) values were given as means ± standard deviation and values of disulfide reductase activity were expressed in % of control sample ± relative standard deviation. All measurements were performed at least three times. Dunnett's test was used to compare the obtained reductase activity data with the activity of the untreated protein and a p value of <0.01 was considered as statistically significant.

For the compound `COc1c(-c2ccc(O)c(O)c2)oc2cc(O)cc(O)c2c1=O` [3-O-Methyl-quercetin, 3-O-methyl quercetin], at PDIA3 [1], the “Stern-Volmer constant (K SV)” value is 41110 ± 794 M⁻¹, the “bimolecular quenching rate constant (K q)” value is 4.11e+12 M⁻¹ s⁻¹, the Kd came out at 21.9 µM and the “binding constant (K b)” value was 45700 M⁻¹.

Take `O=c1cc(-c2ccc(O)cc2)oc2cc(O[C@@H]3O[C@H](CO)[C@@H](O)[C@H](O)[C@H]3O)cc(O)c12` [Apigenin-7-glucoside, apigenin-7-glucoside]: at PDIA3 [1], the “Stern-Volmer constant (K SV)” value came out at 43961 ± 673 M⁻¹, the “bimolecular quenching rate constant (K q)” value worked out at 4.4e+12 M⁻¹ s⁻¹, the Kd was 21.1 µM and the “binding constant (K b)” value is 47300 M⁻¹.

Turning to `Oc1cc(O)c2cc(O)c(-c3ccc(O)c(O)c3)[o+]c2c1` [Cyanidin, cyanidin], at PDIA3 [1], the “Stern-Volmer constant (K SV)” value was 29761 ± 635 M⁻¹, the “bimolecular quenching rate constant (K q)” value was found to be 2.98e+12 M⁻¹ s⁻¹, the Kd was found to be 34.2 µM and the “binding constant (K b)” value is 29300 M⁻¹. In addition, at PDIA3 [2], the “Effect on PDIA3 stability (T m)” value is recorded as “similar, but less pronounced, effect”. The “Inhibition of disulfide reductase (redox) activity” value at PDIA3 [3] was “approximately 20%”.

Turning to `O=c1c(O)c(-c2ccc(O)c(O)c2)oc2cc(O)ccc12` [Fisetin, fisetin], on PDIA3 [1], the “Stern-Volmer constant (K SV)” value worked out at 33164 ± 542 M⁻¹, the “bimolecular quenching rate constant (K q)” value was found to be 3.32e+12 M⁻¹ s⁻¹, the Kd is 27.1 µM and the “binding constant (K b)” value was 36700 M⁻¹. Besides, the “Increase in melting temperature (T m) of PDIA3” value on PDIA3 [2] is reported as “increased more than three degrees”.

In the case of `O=c1c(-c2ccc(O)cc2)coc2cc(O)cc(O)c12` [Genistein, genistein], on PDIA3 [1], the “Stern-Volmer constant (K SV)” value stood at 22953 ± 435 M⁻¹, the “bimolecular quenching rate constant (K q)” value amounted to 2.3e+12 M⁻¹ s⁻¹, the Kd turned out to be 41 µM and the “binding constant (K b)” value was 24400 M⁻¹. In addition, on PDIA3 [2], the “Effect on PDIA3 stability (T m)” value is “similar, but less pronounced, effect”.

Regarding `O=c1c(O[C@@H]2O[C@H](CO)[C@@H](O)[C@H](O)[C@H]2O)c(-c2ccc(O)c(O)c2)oc2cc(O)cc(O)c12` [Isoquercetin, isoquercetin], at PDIA3 [1], the “Stern-Volmer constant (K SV)” value is 25738 ± 367 M⁻¹, the “bimolecular quenching rate constant (K q)” value is 2.57e+12 M⁻¹ s⁻¹, the Kd came to 34.4 µM and the “binding constant (K b)” value is 29100 M⁻¹.

As to `COc1cc(-c2oc3cc(O)cc(O)c3c(=O)c2O)ccc1O` [Isorhamnetin, isorhamnetin], at PDIA3 [1], the “Stern-Volmer constant (K SV)” value stood at 36109 ± 1271 M⁻¹, the “bimolecular quenching rate constant (K q)” value is 3.61e+12 M⁻¹ s⁻¹, the Kd was 30.8 µM and the “binding constant (K b)” value was 32500 M⁻¹. Besides, the “Effect on PDIA3 stability (T m)” value at PDIA3 [2] is “similar, but less pronounced, effect”.

With `O=c1c(O)c(-c2ccc(O)cc2)oc2cc(O)cc(O)c12` [Kaempferol, kaempferol], at PDIA3 [1], the “Stern-Volmer constant (K SV)” value is 28423 ± 982 M⁻¹, the “bimolecular quenching rate constant (K q)” value turned out to be 2.84e+12 M⁻¹ s⁻¹, the Kd turned out to be 38.5 µM and the “binding constant (K b)” value was 26000 M⁻¹. The “Increase in melting temperature (T m) of PDIA3” value at PDIA3 [2] is “increased more than three degrees”.

Take `O=c1cc(-c2ccc(O)c(O)c2)oc2cc(O[C@@H]3O[C@H](CO)[C@@H](O)[C@H](O)[C@H]3O)cc(O)c12` [Luteolin-7-glucoside, luteolin-7-glucoside]: on PDIA3 [1], the “Stern-Volmer constant (K SV)” value was 31601 ± 484 M⁻¹, the “bimolecular quenching rate constant (K q)” value came out at 3.16e+12 M⁻¹ s⁻¹, the Kd is 28.9 µM and the “binding constant (K b)” value was 34600 M⁻¹.

`O=C1C[C@@H](c2ccc(O)cc2)Oc2cc(O)cc(O)c21` [Naringenin, naringenin]: on PDIA3 [1], the “Stern-Volmer constant (K SV)” value is 16900 ± 352 M⁻¹, the “bimolecular quenching rate constant (K q)” value worked out at 1.69e+12 M⁻¹ s⁻¹, the Kd was 57.8 µM and the “binding constant (K b)” value is 17300 M⁻¹.

Regarding `C[C@@H]1O[C@@H](Oc2c(-c3ccc(O)c(O)c3)oc3cc(O)cc(O)c3c2=O)[C@H](O)[C@H](O)[C@H]1O` [Quercitrin, quercitrin], on PDIA3 [1], the “Stern-Volmer constant (K SV)” value was found to be 29211 ± 483 M⁻¹, the “bimolecular quenching rate constant (K q)” value turned out to be 2.92e+12 M⁻¹ s⁻¹, the Kd was found to be 31 µM and the “binding constant (K b)” value is 32300 M⁻¹.

In the case of `COc1cc(O)c2c(=O)c(O)c(-c3ccc(O)c(O)c3)oc2c1` [Rhamnetin, rhamnetin], on PDIA3 [1], the “Stern-Volmer constant (K SV)” value worked out at 28462 ± 295 M⁻¹, the “bimolecular quenching rate constant (K q)” value came to 2.85e+12 M⁻¹ s⁻¹, the Kd came out at 33.2 µM and the “binding constant (K b)” value was 30100 M⁻¹. In addition, the “Effect on PDIA3 stability (T m)” value at PDIA3 [2] was “similar, but less pronounced, effect”.

Regarding `C[C@@H]1O[C@@H](OC[C@H]2O[C@@H](Oc3c(-c4ccc(O)c(O)c4)oc4cc(O)cc(O)c4c3=O)[C@H](O)[C@@H](O)[C@@H]2O)[C@H](O)[C@H](O)[C@H]1O` [Rutin, rutin], at PDIA3 [1], the “Stern-Volmer constant (K SV)” value turned out to be 45197 ± 465 M⁻¹, the “bimolecular quenching rate constant (K q)” value was determined as 4.52e+12 M⁻¹ s⁻¹, the Kd was found to be 22 µM and the “binding constant (K b)” value was 45500 M⁻¹.

`COc1ccc(-c2cc(=O)c3cc(OC)ccc3o2)c(OC)c1` [Trimethoxyflavone, 6,2′,4′-trimethoxyflavone]: on PDIA3 [1], the “Stern-Volmer constant (K SV)” value came out at 22209 ± 484 M⁻¹, the “bimolecular quenching rate constant (K q)” value is 2.22e+12 M⁻¹ s⁻¹ and the Kd is 55.2 µM.
